Experimental data published in ChEMBL document CHEMBL5042488, “Synthesis, biological, and structural explorations of a series of μ-opioid receptor (MOR) agonists with high G protein signaling bias” (Eur J Med Chem, 2022).
Active and inactive are the calls of the source.

Tests used:
Mu-type opioid receptor [1] = target: T1, Mu-type opioid receptor (Homo sapiens, UniProt P35372); experiment: Agonist activity at mu opioid receptor (unknown origin) assessed as maximal cAMP level incubated for 40 mins by spectrophotometry relative to DAMGO; format: functional; settings: filed as agonist
Mu-type opioid receptor [2] = target: T1, Mu-type opioid receptor; experiment: Agonist activity at mu opioid receptor (unknown origin) assessed as increase in cAMP level incubated for 40 mins by spectrophotometry; format: functional
Mu-type opioid receptor [3] = target: T1, Mu-type opioid receptor; experiment: Agonist activity at mu opioid receptor (unknown origin) assessed as beta arrestin-2 recruitment incubated for 3 days by PathHunter assay; format: functional
Mu-type opioid receptor [4] = target: T1, Mu-type opioid receptor; experiment: Agonist activity at mu opioid receptor (unknown origin) assessed as maximal beta arrestin-2 recruitment incubated for 3 days by PathHunter assay relative to DAMGO; format: functional; settings: time 3.0 day
[5] = Metabolic stability in human liver microsomes assessed as intrinsic clearance preincubated for 10 mins followed by NADPH addition and measured after 60 mins by LC-MS/MS analysis; format: ADME, Microsome; settings: time 70 min, read-out: CLH
[6] = Ratio of drug concentration in brain to plasma of Sprague-Dawley rat at 2 mg/kg, iv measured at […] by LC-MS/MS analysis; format: ADME, organism-based; settings: time 0.25 hrs
[7] = Drug concentration in Sprague-Dawley rat brain at […], iv measured after 5 mins by LC-MS/MS analysis; format: ADME, organism-based; settings: dose 0.25 mg/kg, read-out: Drug uptake
Mu-type opioid receptor [8] = target: T1, Mu-type opioid receptor; experiment: Displacement of [3H]-Diprenorphine from human mu opiod receptor expressed in CHO cells incubated for 1 hr by competition binding assay; format: cell-based
[9] = Half life of compound; format: physicochemical
[10] = Plasma protein binding in human plasma assessed as unbound fraction; format: ADME, cell-free
[11] = MRT in Sprague-Dawley rat at 2 mg/kg, iv by LC-MS/MS analysis; format: ADME, organism-based; settings: in vivo
[12] = Apparent permeability across apical to basal membrane in human Caco-2 cells; format: ADME, cell-based
Rattus norvegicus [13] = experiment: Antinociceptive activity in Sprague-Dawley rat assessed as increase in paw withdrawal latency at 0.3 mg/kg, sc measured after 30 mins by Hot-plate test; format: functional, organism-based
[14] = Drug concentration in Sprague-Dawley rat liver at […],iv measured after 30 mins by LC-MS/MS analysis; format: ADME, organism-based; settings: in vivo, 0.5 h, dose 0.25 mg/kg
[15] = Half life in Sprague-Dawley rat at 2 mg/kg, iv by LC-MS/MS analysis; format: ADME, organism-based; settings: in vivo
[16] = Toxicity in Sprague-Dawley rat assessed as effect on respiration at 0.3 mg/kg, sc; format: organism-based; settings: in vivo
[17] = Toxicity in Sprague-Dawley rat model assessed as effect on blood oxygen levels at […], sc measured after 30 mins by blood gas analyzer; format: organism-based; settings: in vivo, 0.5 h, dose 0.32 mg/kg
[18] = target: Kappa-type opioid receptor (Homo sapiens, UniProt P41145); experiment: Agonist activity at human kappa opioid receptor expressed in HEK293 assessed as increase in calcium mobilization incubated for 60 mins by FLIPR assay; format: functional, cell-based
[19] = Cmax in Sprague-Dawley rat at 2 mg/kg, iv by LC-MS/MS analysis; format: ADME, organism-based; design: route intravenous, dose 2 mg/kg; settings: in vivo
[20] = target: Delta-type opioid receptor (Homo sapiens, UniProt P41143); experiment: Agonist activity at human delta opioid receptor expressed in HEK293 assessed as increase in calcium mobilization incubated for 60 mins by FLIPR assay; format: functional, cell-based
[21] = Metabolic stability in dog liver microsomes assessed as intrinsic clearance preincubated for 10 mins followed by NADPH addition and measured after 60 mins by LC-MS/MS analysis; format: ADME, Canis lupus familiaris, Microsome; settings: time 70 min, read-out: CLH
Rattus norvegicus [22] = experiment: Antinociceptive activity in Sprague-Dawley rat incision pain model assessed as increase in paw withdrawal latency at 0.125 to 0.5 mg/kg, sc measured after 30 mins by Von Frey filament assay; format: functional; settings: dose 0.125-0.5 mg/kg
[23] = Plasma protein binding in rat plasma assessed as unbound fraction; format: ADME, cell-free
Mu-type opioid receptor [24] = target: T1, Mu-type opioid receptor; experiment: Agonist activity at human mu opioid receptor expressed in HEK293 assessed as increase in calcium mobilization incubated for 60 mins by FLIPR assay; format: functional, cell-based
Cytochrome P450 2C19 = Cytochrome P450 2C19 (Homo sapiens, UniProt P33261); experiment: Inhibition of CYP2C19 (unknown origin); format: ADME
Rattus norvegicus [25] = experiment: Antinociceptive activity in sc dosed Sprague-Dawley rat assessed as increase in thermal pain threshold measured after 30 mins by Hot-plate test; format: functional; settings: 0.5 h
[26] = AUC(0 to infinity) in Sprague-Dawley rat at 2 mg/kg, iv by LC-MS/MS analysis; format: ADME, organism-based; design: route intravenous, time infinity, dose 2 mg/kg; settings: in vivo
[27] = AUClast in Sprague-Dawley rat at 2 mg/kg, iv by LC-MS/MS analysis; format: ADME, organism-based; design: time 0 - last, route intravenous, dose 2 mg/kg; settings: in vivo
[28] = Metabolic stability in rat liver microsomes assessed as intrinsic clearance preincubated for 10 mins followed by NADPH addition and measured after 60 mins by LC-MS/MS analysis; format: ADME, Microsome; settings: time 70 min, read-out: CLH
[29] = Apparent volume of distribution in Sprague-Dawley rat at 2 mg/kg, iv by LC-MS/MS analysis; format: ADME, organism-based; settings: in vivo, read-out: Vz
[30] = Plasma protein binding in dog plasma assessed as unbound fraction; format: ADME, cell-free, Canis lupus familiaris

T1 sequence (P35372 whole entry): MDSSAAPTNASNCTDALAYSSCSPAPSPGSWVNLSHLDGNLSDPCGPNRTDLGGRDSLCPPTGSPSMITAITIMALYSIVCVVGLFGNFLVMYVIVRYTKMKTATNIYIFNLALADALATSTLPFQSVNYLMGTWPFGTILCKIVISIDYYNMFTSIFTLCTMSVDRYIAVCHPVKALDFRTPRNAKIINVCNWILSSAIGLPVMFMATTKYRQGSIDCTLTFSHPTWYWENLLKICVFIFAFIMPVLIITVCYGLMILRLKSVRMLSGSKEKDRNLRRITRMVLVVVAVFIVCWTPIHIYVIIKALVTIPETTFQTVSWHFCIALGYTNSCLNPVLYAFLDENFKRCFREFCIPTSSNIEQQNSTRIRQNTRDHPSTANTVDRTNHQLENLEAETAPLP
Chain of Delta-type opioid receptor (P41143 whole entry): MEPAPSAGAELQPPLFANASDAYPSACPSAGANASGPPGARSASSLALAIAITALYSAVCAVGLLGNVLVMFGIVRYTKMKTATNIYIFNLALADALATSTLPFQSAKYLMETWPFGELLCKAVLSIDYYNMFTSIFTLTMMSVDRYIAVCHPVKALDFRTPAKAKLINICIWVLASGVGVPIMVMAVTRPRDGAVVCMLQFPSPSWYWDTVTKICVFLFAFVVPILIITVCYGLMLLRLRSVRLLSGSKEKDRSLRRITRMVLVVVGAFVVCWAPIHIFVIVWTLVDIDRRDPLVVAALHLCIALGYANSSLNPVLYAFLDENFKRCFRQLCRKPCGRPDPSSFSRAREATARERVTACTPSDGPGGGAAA
Chain of Cytochrome P450 2C19 (P33261 whole entry): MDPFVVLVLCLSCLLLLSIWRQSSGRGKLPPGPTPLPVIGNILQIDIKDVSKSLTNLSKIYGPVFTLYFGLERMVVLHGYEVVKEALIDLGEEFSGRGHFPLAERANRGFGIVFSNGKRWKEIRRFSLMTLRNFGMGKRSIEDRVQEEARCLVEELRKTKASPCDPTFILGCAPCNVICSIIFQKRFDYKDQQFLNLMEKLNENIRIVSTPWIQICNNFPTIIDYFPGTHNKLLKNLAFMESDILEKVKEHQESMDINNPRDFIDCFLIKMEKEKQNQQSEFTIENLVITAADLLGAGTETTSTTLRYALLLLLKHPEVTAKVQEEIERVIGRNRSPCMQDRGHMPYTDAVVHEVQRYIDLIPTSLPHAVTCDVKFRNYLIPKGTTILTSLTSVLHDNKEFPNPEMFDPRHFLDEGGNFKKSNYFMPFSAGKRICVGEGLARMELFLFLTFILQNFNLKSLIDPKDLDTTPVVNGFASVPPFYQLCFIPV
Chain of Kappa-type opioid receptor (P41145 whole entry): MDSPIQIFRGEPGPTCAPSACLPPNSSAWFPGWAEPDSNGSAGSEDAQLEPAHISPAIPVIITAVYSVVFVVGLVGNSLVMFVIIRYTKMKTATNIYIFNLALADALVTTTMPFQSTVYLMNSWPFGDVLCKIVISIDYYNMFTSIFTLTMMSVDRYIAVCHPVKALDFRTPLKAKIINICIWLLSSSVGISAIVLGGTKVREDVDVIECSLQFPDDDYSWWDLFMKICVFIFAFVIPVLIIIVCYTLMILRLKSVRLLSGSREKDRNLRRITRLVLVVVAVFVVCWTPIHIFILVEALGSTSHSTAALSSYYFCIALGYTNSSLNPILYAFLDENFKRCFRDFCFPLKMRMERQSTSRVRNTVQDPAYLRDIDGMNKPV

Compound `Fc1ccc(CNCC[C@@]2(c3ccccn3)CCOC3(CCOC3)C2)cc1Cl` (stereo not given in full) has an Emax (Mu-type opioid receptor [1]) of 92.3%, an EC50 (Mu-type opioid receptor [2]) of 26.5 nM and an EC50 (Mu-type opioid receptor [3]) of over 30000 nM.
With `FC1(F)CCc2csc(CNCC[C@@]3(c4ccccn4)CCOC4(CCCC4)C3)c2C1` the Emax (Mu-type opioid receptor [1]) was 92.5%, the EC50 (Mu-type opioid receptor [2]) was 1.8 nM and the Emax (Mu-type opioid receptor [4]; filed as agonist) was 54.3%. The EC50 (Mu-type opioid receptor [3]) was 11 nM and the CLint scaled [5] was 1610 mL/min/kg.
Compound `FC1(F)CCc2c(csc2CNCC[C@@]2(c3ccccn3)CCOC3(CCOC3)C2)C1` (stereo not given in full) has an Emax (Mu-type opioid receptor [1]) of 101%, an EC50 (Mu-type opioid receptor [2]) of 0.5 nM and an Emax (Mu-type opioid receptor [4]; filed as agonist) of 43.1%. It also gave an EC50 (Mu-type opioid receptor [3]) of 69 nM.
Work on `Fc1ccc([C@]2(CCNCc3scc4c3CCC4)CCOC3(CCOC3)C2)cc1` (stereo not given in full) yielded an EC50 (Mu-type opioid receptor [2]) of 0.07 nM, an EC50 (Mu-type opioid receptor [3]) of over 30000 nM and a CLint scaled [5] of 157 mL/min/kg.
In the case of `Fc1ccc([C@]2(CCNCc3cccc(Cl)c3)CCO[C@]3(CCOC3)C2)nc1`, the Kp at […] [6] is reported as 4.61, the concentration at 5 min [7] is reported as 172 ng/g and the Emax (Mu-type opioid receptor [1]) is reported as 91.4%. The Ki (Mu-type opioid receptor [8]) was 0.514 nM, the half-life [9] was 7.16 min and the fraction unbound [10] was 0.34. For the same compound, the MRT [11] was 48.6 min, the Papp A→B [12] was 5.2 ×10⁻⁶ cm/s and the Activity (Rattus norvegicus [13]) was “Active”. The Drug uptake [14] was 58.6%, the half-life [15] was 119 min and the Activity [16] was “Non-Toxic”. The Activity [17] was 92.17%, the EC50 [18] was over 10000 nM and the Cmax [19] was 252 ng/mL. The EC50 [20] was over 10000 nM, the EC50 (Mu-type opioid receptor [2]) was 0.35 nM and the Emax (Mu-type opioid receptor [4]) was 1.6%. For the same compound, the CLint scaled [21] was 152 mL/min/kg, the Activity (Rattus norvegicus [22]) was 50% and the fraction unbound [23] was 0.33. For the same compound, the EC50 (Mu-type opioid receptor [24]) was 5.09 nM, the IC50 (Cytochrome P450 2C19) was over 33000 nM and the ED50 (Rattus norvegicus [25]) was 0.23 mg/kg. The AUC [26] was 134.01 ng·h/mL, the AUC(0-t) [27] was 132 ng·h/mL and the CLint scaled [28] was 176 mL/min/kg. It also gave a Vd [29] of 10.8 L/kg and a fraction unbound [30] of 0.17.
For `Fc1ccc([C@]2(CCNCc3cncc(Cl)c3)CCOC3(CCOC3)C2)cc1` (stereo not given in full), the Emax (Mu-type opioid receptor [1]) was 90.8%, the EC50 (Mu-type opioid receptor [2]) was 12.8 nM and the EC50 (Mu-type opioid receptor [3]) was over 30000 nM.
For `Cc1ccsc1CNCC[C@@]1(c2ccc(F)cc2)CCOC2(CCOC2)C1` (stereo not given in full), the Emax (Mu-type opioid receptor [1]) was 61.2%, the EC50 (Mu-type opioid receptor [2]) was 4.1 nM and the Emax (Mu-type opioid receptor [4]) was 2.9%. It also gave an EC50 (Mu-type opioid receptor [3]) of over 30000 nM.
In the case of `COc1ccsc1CNCC[C@@]1(c2ccccn2)CCO[C@]2(CCOC2)C1`, the Emax (Mu-type opioid receptor [1]) is reported as 63.7%, the EC50 (Mu-type opioid receptor [2]) is reported as 20 nM and the Emax (Mu-type opioid receptor [4]) is reported as 1.2%. It also gave an EC50 (Mu-type opioid receptor [3]) of over 30000 nM and a CLint scaled [5] of 9.3 mL/min/kg.
In the case of `Fc1ccc([C@]2(CCNCc3scc4c3CCC4)CCO[C@]3(CCOC3)C2)nc1`, the Emax (Mu-type opioid receptor [1]) is reported as 95.1% and the CLint scaled [5] is reported as 108 mL/min/kg.
With `c1ccc([C@]2(CCNCc3scc4c3COC4)CCOC3(CCOC3)C2)nc1` (stereo not given in full) the Emax (Mu-type opioid receptor [1]) was 90.4%, the EC50 (Mu-type opioid receptor [2]) was 14.1 nM and the EC50 (Mu-type opioid receptor [3]) was over 30000 nM.
Work on `c1ccc([C@]2(CCNCc3scc4c3COC4)CCOC3(CCCC3)C2)nc1` yielded an Emax (Mu-type opioid receptor [1]) of 90.5%, an EC50 (Mu-type opioid receptor [2]) of 2 nM and an Emax (Mu-type opioid receptor [4]) of 4.4%. The EC50 (Mu-type opioid receptor [3]) was 27 nM and the CLint scaled [5] was 230 mL/min/kg.
Compound `C[C@@H](NC(=O)[C@@H](N)Cc1ccc(O)cc1)C(=O)NCC(=O)N(C)[C@@H](Cc1ccccc1)C(=O)NCCO` [DAMGO] has a half-life [9] of 5.95 min.
`C[C@@H](Cc1ccsc1)NC(=O)NC[C@H](Cc1ccc(O)cc1)N(C)C` gave an Emax (Mu-type opioid receptor [1]) of 89.2%, an Emax (Mu-type opioid receptor [4]) of 5% and a CLint scaled [5] of under 8.6 mL/min/kg.
